Experiments:
Human EP2 = molecular target: T1, Human EP2 (Homo sapiens, UniProt P43116); experiment: Receptor affinity, tritium-labeled PGE2 binding to membranes of transfected COS-7 cells
T1 construct: expressed in transfected cells; host or cells: COS-7
Method: (§1) PG receptor affinity of compound F and compound J of the present invention was evaluated. Compound F used was one synthesized in Example 9, and compound J was prepared by separating and purifying the compound synthesized in Example 14 with a column (the same preparations were used in the following Examples). COS-7 cells were transfected with the genes of mouse EP4, human EP1-4 or human IP to overexpress the receptor and then the cell membranes were collected. […] The dissociation constant Kd value was obtained and inhibition constant Ki value of each test compound was determined in a conventional method.

Mouse EP4 = molecular target: T2, Mouse EP4 (Mus musculus, UniProt P32240); experiment: as above
T2 construct: expressed in transfected cells; host or cells: COS-7
Method: as §1

Human IP = molecular target: T3, Human IP (Homo sapiens, UniProt P43119); experiment: Receptor affinity, tritium-labeled iloprost binding to membranes of transfected COS-7 cells; settings: COS-7 cell membranes
T3 construct: expressed in transfected cells; host or cells: COS-7
Method: PG receptor affinity of compound F and compound J of the present invention was evaluated. Compound F used was one synthesized in Example 9, and compound J was prepared by separating and purifying the compound synthesized in Example 14 with a column (the same preparations were used in the following Examples). COS-7 cells were transfected with the genes of mouse EP4, human EP1-4 or human IP to overexpress the receptor and then the cell membranes were collected. As a labeled ligand, tritium-labeled PGE2 was used for EPs; tritium-labeled iloprost, for IP. The dissociation constant Kd value was obtained and inhibition constant Ki value of each test compound was determined in a conventional method. As a reference control, PGE2 was used for EPs; beraprost sodium (BPS), for IP.

[1] = test system: Human Platelet Aggregation; experiment: Inhibitory effect on ADP-induced platelet aggregation in platelet-rich plasma; assay type: cell-based; settings: ADP 10 µmol/L, geometric mean of three volunteers
Method: The inhibitory effect of compounds F and J, and carboxylate forms thereof on platelet aggregation was evaluated. The carboxylate forms were prepared by separating and purifying the compound synthesized in Example 15 with a column. Blood was drawn from 3 healthy volunteers using sodium citrate as an anticoagulant, and platelet-rich plasma was prepared. The platelet-rich plasma was treated with physiological saline or test compounds and, 2 min later, platelet aggregation was induced with adenosine diphosphate (ADP, final concentration 10 µmol/L) and recorded with a platelet aggregation measurement apparatus (nephelometry).

[2] = test system: dextran sodium sulfate-induced colitis; experiment: Dextran sodium sulfate-induced colitis model in mice (C57BL/6); assay type: in vivo; settings: C57BL/6 mice, DSS, oral 0.3 and 1 mg/kg once a day
Method: Female C57BL/6 mice (6 weeks old, Japan SLC) were purchased, acclimated for 1 week and used for the study. Except the normal group, the mice were allowed to freely drink a 3 or 2 w/v% DSS (MP Biochemicals, Lot No. 5653H and 5464H, respectively) solution for 1 week to induce colitis. BPS at a dose of 0.3 mg/kg and compound F at doses of 0.3 and 1 mg/kg were orally administered once a day, daily, from the start day of DSS drinking (day 0) to one day before autopsy (day 9). To the control group was orally administered a solvent (1 vol% ethanol solution) at 10 mL/kg in the same manner. The consistency of the stool was graded from score 0 to 4, with normal (0), partly loose stool (1), loose stool (2) and diarrhea (4). The blood feces was also graded from score 0 to 4, with normal (0), partly blood feces (1), blood feces (2) and blood feces plus proctorrhagia (4). The sum of both grades was defined as the stool score (maximum 8). Furthermore, the length of the large intestine was measured in the same manner as in Example 23. Six to 10 animals were used for each group, and the results are shown in average ± standard deviation.

[3] = test system: CD4+CD25- T cell transfer colitis; experiment: Prophylactic effect on CD4+CD25- T cell transfer colitis model in mice; assay type: in vivo, C.B-17/Icr-scid mice; settings: scid mice, oral 1 mg/kg once a day for 20 days
Method: Female BALB/cA Jcl mice, 6 weeks old, body weight 19 - 23 g (CLEA Japan, Inc.) and female C.B-17/Icr-scid mice (6 weeks old, CLEA Japan, Inc.) were purchased, acclimated for 1 week and used for the study. After laparotomy under ether anesthesia, BALB/cA Jcl mice were exsanguinated to death through the abdominal aorta and caudal vena cava, and the spleen was isolated. Splenocytes were prepared from the spleen and then CD4^+CD25^- T cells were prepared with a CD4^+ T cell Isolation Kit (No. 130-090-860, Milky Biotech Co., Ltd.) and CD25-Biotin antibody (No. 130-092-569, Milky Biotech Co., Ltd.). The cells were separated using the autoMACS Separator (Milky Biotech Co., Ltd.). The separated CD4^+CD25^- T cells were suspended in physiological phosphate buffer solution, and 2.5×10^5 cells per animal were intraperitoneally administered to C.B-17/Icr-scid mice to induce colitis. […] To the control group was orally administered a solvent (1 vol% ethanol solution) at 10 mL/kg. […] The fecal occult blood score was evaluated in the same manner as in Example 23. […] Eight to 10 mice were used for each group and the results were expressed as average.

T1 sequence (P43116 whole entry): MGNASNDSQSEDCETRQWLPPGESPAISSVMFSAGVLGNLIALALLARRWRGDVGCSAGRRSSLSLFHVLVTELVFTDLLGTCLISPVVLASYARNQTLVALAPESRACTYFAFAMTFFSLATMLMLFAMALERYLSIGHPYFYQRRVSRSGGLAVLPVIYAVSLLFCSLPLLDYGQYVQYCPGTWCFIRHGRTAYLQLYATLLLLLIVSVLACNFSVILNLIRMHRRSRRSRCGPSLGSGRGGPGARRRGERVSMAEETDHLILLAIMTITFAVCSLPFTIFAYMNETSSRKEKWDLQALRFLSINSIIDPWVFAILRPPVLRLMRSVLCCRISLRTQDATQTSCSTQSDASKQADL
T3 sequence (P43119 whole entry): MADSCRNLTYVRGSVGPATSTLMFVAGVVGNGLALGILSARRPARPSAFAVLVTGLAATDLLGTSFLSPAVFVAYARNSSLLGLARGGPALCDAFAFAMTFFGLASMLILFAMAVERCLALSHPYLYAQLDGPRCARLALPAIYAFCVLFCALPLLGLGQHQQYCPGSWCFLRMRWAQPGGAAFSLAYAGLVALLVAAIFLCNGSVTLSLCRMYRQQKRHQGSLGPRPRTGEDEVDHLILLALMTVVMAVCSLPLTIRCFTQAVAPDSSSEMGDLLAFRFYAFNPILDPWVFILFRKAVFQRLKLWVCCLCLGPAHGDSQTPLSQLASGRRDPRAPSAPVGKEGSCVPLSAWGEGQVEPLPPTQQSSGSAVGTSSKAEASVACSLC
T2 sequence (P32240 whole entry): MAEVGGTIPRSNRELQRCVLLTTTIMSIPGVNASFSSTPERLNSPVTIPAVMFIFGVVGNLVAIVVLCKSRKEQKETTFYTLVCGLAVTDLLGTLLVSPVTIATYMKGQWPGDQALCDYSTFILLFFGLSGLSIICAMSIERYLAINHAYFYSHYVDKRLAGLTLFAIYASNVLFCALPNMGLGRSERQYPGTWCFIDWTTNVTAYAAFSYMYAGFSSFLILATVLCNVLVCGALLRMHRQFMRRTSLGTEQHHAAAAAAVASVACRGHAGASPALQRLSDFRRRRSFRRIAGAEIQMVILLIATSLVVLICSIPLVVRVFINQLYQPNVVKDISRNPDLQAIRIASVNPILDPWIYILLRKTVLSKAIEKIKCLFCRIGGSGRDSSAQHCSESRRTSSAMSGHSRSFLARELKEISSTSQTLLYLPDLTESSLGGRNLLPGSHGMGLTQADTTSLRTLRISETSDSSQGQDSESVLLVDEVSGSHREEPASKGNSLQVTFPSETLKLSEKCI

## Cc1cccc([C@@H](C)[C@H](O)/C=C/[C@@H]2[C@@H]3[C@H](C[C@H]2O)O/C(=C\CCCc2nnn[nH]2)C3(F)F)c1 [Compound F, 4-[(Z)-(1S,5R,6R,7R)-6-[(1E,3R,4R)-3-hydroxy-4-(m-tolyl)-1-pentenyl]-7-hydroxy-2-oxa-4,4-difluoro-bicyclo[3.3.0]octan-3-ylidene]-1-(tetrazol-5-yl)butane]
Human EP2
  Ki: 570 nM
Mouse EP4
  Ki: 68 nM
Human IP
  Ki: 670 nM
[1]
  IC50: 917 nM
[2]
  effect on the onset of colitis (stool score, colon shortening): superior prophylactic effect on the onset of colitis
[3]
  DAI score: comprehensively superior to prednisolone
  effect on body weight decrease score: prevented the increase in the body weight decrease score almost completely
